Common to all, as to format: in vitro ADME
The target of data set [1] is T1, UGT1A6 (Homo sapiens, UniProt P19224).
T1 construct: purchased BD Gentest Corp. (Woburn, MA, USA); host or cells: baculovirus-infected insect cells
T1 sequence (P19224 27-532): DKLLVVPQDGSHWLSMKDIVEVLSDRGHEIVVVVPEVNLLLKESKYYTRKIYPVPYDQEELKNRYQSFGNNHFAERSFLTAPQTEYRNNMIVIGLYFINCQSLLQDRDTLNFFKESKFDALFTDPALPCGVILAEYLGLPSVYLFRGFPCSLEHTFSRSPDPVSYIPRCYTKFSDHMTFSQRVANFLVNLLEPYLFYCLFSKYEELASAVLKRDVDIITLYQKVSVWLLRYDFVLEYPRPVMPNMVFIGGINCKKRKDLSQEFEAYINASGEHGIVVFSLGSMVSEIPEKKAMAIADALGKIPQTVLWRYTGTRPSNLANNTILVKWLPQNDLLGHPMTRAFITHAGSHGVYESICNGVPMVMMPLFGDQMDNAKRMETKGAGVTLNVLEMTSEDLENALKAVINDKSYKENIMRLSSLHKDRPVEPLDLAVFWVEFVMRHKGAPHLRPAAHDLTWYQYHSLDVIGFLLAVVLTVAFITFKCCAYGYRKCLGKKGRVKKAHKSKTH
Put plainly: Recombinant UGT1A6-catalyzed 4-MU glucuronidation inhibition. As to conditions: for activity at 100 µM / inhibition at 100 µM: human, pH 7.4, probe 4-methylumbelliferone (4-MU); for activity at 100 µM: UGT1A6, 100 μM of compound, 4-MU substrate, read-out: residual activity; for inhibition type: UGT1A6, Dixon and Lineweaver-Burk plots; for inhibition at 100 µM: UGT1A6, at 100 μM, read-out: inhibition percent. The text has this: (§1) 4-Methylumbelliferone (4-MU), 4-methylumbelliferone-β-D-glucuronide (4-MUG), Tris-HCl, 7-hydroxycoumarin, and uridine-5′-diphosphoglucuronic acid (UDPGA) (trisodium salt) were purchased from Sigma-Aldrich (St. Louis, MO). Recombinant human UGT isoforms (UGT1A1, UGT1A3, UGT1A4, UGT1A6, UGT1A7, UGT1A8, UGT1A9, UGT1A10, UGT2B4, UGT2B7, and UGT2B15) expressed in baculovirus-infected insect cells were obtained from BD Gentest Corp. (Woburn, MA, USA). Ophiopogonin D (OD), ophiopogonin D′ (OD′), methylophiopogonanone A (MA), methylophiopogonanone B (MB), and ruscorectal (RU) were purchased from Sichuan Weikeqi Biotechnology Company (Chengdu, Sichuan, China). The purity of these compounds was above 95%. All other reagents were of HPLC grade or of the highest grade commercially available.
(§2) 4-MU, the nonspecific probe substrate for all the UGT isoforms except UGT1A4, was used in the present study to initially screen the inhibition potential of maidong's components towards UGT isoforms as previously reported. In brief, the incubation system (total volume = 200 μL) consisted of recombinant UGTs, 5 mM UDPGA, 5 mM MgCl2, 50 mM Tris-HCl (pH = 7.4), and 4-MU in the absence or presence of different concentrations of maidong's components. The compounds were dissolved in DMSO, and the final concentration of DMSO was below 0.5% (v/v). The used incubation time and protein concentration were previously determined to ensure the reaction rate within the linear range. The 4-MU concentration was equal to known K m or S 50 values for each UGT isoform. After 5 min preincubation at 37°C, the incubation reaction was initiated via adding UDPGA to the mixture system. The reactions were quenched by adding 100 μL acetonitrile with 7-hydroxycoumarin (100 μM) as internal standard. Centrifuged at 20000 ×g for 10 min, an aliquot of supernatant was transferred to an autoinjector vial for HPLC analysis. The HPLC system (Shimadzu, Kyoto, Japan) contained a SCL-10A system controller, two LC-10AT pumps, a SIL-10A autoinjector, and a SPD-10AVP UV detector. Chromatographic separation was carried out using a C18 column (4.6 × 200 mm, 5 μm, Kromasil) at a flow rate of 1 mL/min and UV detector at 316 nm. The mobile phase consisted of acetonitrile (A) and H2O containing 0.5% (v/v) formic acid (B). The following gradient condition was used: 0–15 min, 95–40% B; 15–20 min, 10% B; 20–30 min, 95% B.
(§3) To determine the inhibition kinetic type and parameters (K i), the reaction velocity (V) was determined at multiple concentrations of maidong's components and 4-MU (or TFP). Dixon plot and Lineweaver-Burk plot were used to fit the data. The inhibition kinetic type was evaluated through determining the intersection point in the Dixon and Lineweaver-Burk plots.
(§4) K m value is the substrate concentration in which the velocity reached half of the maximum velocity (V max) of the reaction. K i value is the inhibition constant.

Data set [2] concerns the target T2, UGT1A8 (Homo sapiens, UniProt Q9HAW9).
T2 construct: purchased BD Gentest Corp. (Woburn, MA, USA); host or cells: baculovirus-infected insect cells
T2 sequence (Q9HAW9 26-530): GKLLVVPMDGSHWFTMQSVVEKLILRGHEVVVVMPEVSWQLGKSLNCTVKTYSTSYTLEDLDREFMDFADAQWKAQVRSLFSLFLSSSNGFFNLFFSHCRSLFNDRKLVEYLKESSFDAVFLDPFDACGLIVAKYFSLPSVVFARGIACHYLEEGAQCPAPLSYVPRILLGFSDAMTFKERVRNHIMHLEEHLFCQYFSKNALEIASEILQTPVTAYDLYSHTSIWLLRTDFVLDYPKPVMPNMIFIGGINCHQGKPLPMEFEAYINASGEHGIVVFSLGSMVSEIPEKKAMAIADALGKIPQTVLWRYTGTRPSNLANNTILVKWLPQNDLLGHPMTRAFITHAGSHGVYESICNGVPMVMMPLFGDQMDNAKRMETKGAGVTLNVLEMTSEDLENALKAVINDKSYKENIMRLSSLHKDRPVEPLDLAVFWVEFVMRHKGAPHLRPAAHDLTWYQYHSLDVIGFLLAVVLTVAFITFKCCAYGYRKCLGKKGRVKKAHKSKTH
Put plainly: Recombinant UGT1A8-catalyzed 4-MU glucuronidation inhibition. As to conditions: for activity at 100 µM: UGT1A8, 100 μM of compound, 4-MU substrate, read-out: residual activity.
Source text: as §1, §2, §3, §4

In data set [3] the target is T3, UGT2B4 (Homo sapiens, UniProt P06133).
T3 construct: purchased BD Gentest Corp. (Woburn, MA, USA); host or cells: baculovirus-infected insect cells
T3 sequence (P06133 24-528): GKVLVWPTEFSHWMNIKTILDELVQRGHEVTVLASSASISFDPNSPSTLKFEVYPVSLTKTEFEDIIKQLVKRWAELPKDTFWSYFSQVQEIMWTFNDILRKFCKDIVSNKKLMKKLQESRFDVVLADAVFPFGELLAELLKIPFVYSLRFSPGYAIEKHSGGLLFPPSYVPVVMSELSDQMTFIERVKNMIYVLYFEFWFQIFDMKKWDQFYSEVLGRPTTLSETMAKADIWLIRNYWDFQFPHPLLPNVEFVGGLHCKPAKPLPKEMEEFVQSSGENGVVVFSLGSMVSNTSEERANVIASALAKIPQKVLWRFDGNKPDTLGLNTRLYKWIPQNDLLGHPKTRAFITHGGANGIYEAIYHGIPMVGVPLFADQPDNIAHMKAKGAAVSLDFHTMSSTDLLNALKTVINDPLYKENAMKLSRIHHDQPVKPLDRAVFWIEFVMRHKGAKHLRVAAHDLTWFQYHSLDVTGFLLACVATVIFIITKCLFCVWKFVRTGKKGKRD
Put plainly: Recombinant UGT2B4-catalyzed 4-MU glucuronidation inhibition. As to conditions: pH 7.4, probe 4-methylumbelliferone (4-MU), UGT2B4, 100 μM of compound, 4-MU substrate, read-out: residual activity.
Source text: as §1, §2

Where [4] appears, read: human, pH 7.4, probe 4-methylumbelliferone (4-MU).

Where two headings read alike, the source gives them in different places.

The results in this text go back to publication PMC4229968, “The Inhibition of the Components from Shengmai Injection towards UDP-Glucuronosyltransferase” (Evidence-based Complementary and Alternative Medicine : eCAM, 2014).

As a reminder, the Ki is the dissociation constant of the complex between target and ligand, obtained from inhibition or displacement. The term inhibition denotes the percentage by which the read-out fell short of the control.

As to `Cc1c(O)c(C)c2c(c1O)C(=O)[C@H](Cc1ccc3c(c1)OCO3)CO2` [MA, methylophiopogonanone A], the activity at 100 µM in data set [1] came to 67 ± 1.7%; in data set [2] (setting [4]) it was 20.5 ± 2.1%; in data set [3] it was 71.1 ± 1.5%.

Regarding `CC1CCC2(OC1)OC1CC3C4CC=C5CC(O)CC(O)C5(C)C4CCC3(C)C1C2C` (stereo not drawn) [RU, ruscorectal], the activity at 100 µM in data set [1] amounted to 65.9 ± 11.6%; in data set [2] (setting [4]), 72 ± 3%; in data set [3] it was 88.4 ± 1.6%.

For `COc1ccc(C[C@@H]2COc3c(C)c(O)c(C)c(O)c3C2=O)cc1` [MB, methylophiopogonanone B], the values for the activity at 100 µM in data set [1], in data set [2] (setting [4]) and in data set [3] were 65.3 ± 2%, 85 ± 4.5% and 73.2 ± 1.2%, respectively.

Turning to `C[C@@H]1CC[C@@]2(OC1)O[C@H]1C[C@H]3[C@@H]4CC=C5C[C@@H](O[C@@H]6O[C@H](CO)[C@@H](O)[C@H](O[C@@H]7OC[C@@H](O)[C@H](O)[C@H]7O)[C@H]6O[C@@H]6O[C@@H](C)[C@H](O)[C@@H](O)[C@H]6O)CC[C@]5(C)[C@H]4CC[C@]3(C)[C@H]1[C@@H]2C` [OD′, ophiopogonin D′], in data set [1] (UGT1A6-catalyzed 4-MU glucuronidation, read-out: inhibition kinetic parameter (Ki)), the Ki was 5.3 µM. In addition, the inhibition type entry in data set [1] is given as “noncompetitively inhibited”. The activity at 100 µM in data set [1] amounted to 12.1 ± 1.9%; in data set [2] (setting [4]), 18.9 ± 6.6%; in data set [3], 118 ± 21.8%. The inhibition at 100 µM in data set [1] was found to be 87.9%.

Turning to `C[C@@H]1CC[C@@]2(OC1)O[C@H]1C[C@H]3[C@@H]4CC=C5C[C@@H](O)C[C@@H](O[C@@H]6O[C@H](C)[C@H](O)[C@H](O[C@@H]7OC[C@@H](O)[C@H](O)[C@H]7O)[C@H]6O[C@@H]6O[C@@H](C)[C@H](O)[C@@H](O)[C@H]6O)[C@]5(C)[C@H]4CC[C@]3(C)[C@H]1[C@@H]2C` [OD, ophiopogonin D], the Ki in data set [1] worked out at 20.6 µM; in data set [2], 40.1 µM. Moreover, the inhibition type result in data set [1] was “noncompetitively inhibited”; in data set [2] (UGT1A8, Dixon and Lineweaver-Burk plots) it was “competitively inhibited”. Besides, the activity at 100 µM came to 12.8 ± 3.1% in data set [1], 17.3 ± 0.9% in data set [2] (setting [4]) and 102 ± 2.6% in data set [3]. In addition, the inhibition at 100 µM was determined as 87.2% in data set [1] and 82.7% in data set [2] (human, pH 7.4, probe 4-methylumbelliferone (4-MU), UGT1A8, at 100 μM, read-out: inhibition percent).
